Laboratory results as given in patent US20110003767A1, “Inhibitors of Acetyl-CoA Carboxylase for Treatment of Neuronal Hypometabolism” (NEUERA PHARMACEUTICALS, INC., priority 2007, published 2011).
In brackets after ≈: the same amount, converted by molar mass. Entries after “also recorded” stand apart in the source; their conditions may differ. Where two headings read alike, the source gives them in different places.

Tests used:
[1] = system: plasma beta-hydroxybutyrate (BHB); experiment: Mouse pharmacokinetic (PK) study of AC-0417-9: plasma BHB after oral dosing; type: in vivo; conditions: single po dose of 3 g/kg
Protocol: Purpose: Determine blood levels of ketone bodies after oral dosing of AC-0417-9 (3,3-Dimethylhexanoate, monoglyceride) at different time points in the mouse. Animals: 12 ICR male mice 6 to 7 weeks old were used. Each mouse weighed between 20-30 grams. General Study Design: Animals (housed 3/cage) were acclimated for at least 3 days prior to dosing. Mice were given a single po dose of 3 g/kg. Animals were anesthetized for blood collection at the times 0.5, 1, 2 and 3 hours. Whole blood (˜0.4 mls) was collected via cardiac puncture and collected into sodium heparin (Na Heparin, 1:9 ratio) anticoagulant. Blood was centrifuged for 8 minutes at 13,000 rpm to isolate plasma. The plasma was transferred into pre-labeled, color-coded eppendorf tubes and frozen at −70° C. […] Plasma levels of beta-hydroxybutyrate (BHB) were determined using a beta-hydroxybutyrate detection kit following manufacturer's directions (StanBio Inc.). Materials: Compound, mouse gavage needles, vehicle, Isoflurane, 1 cc syringes w/26 g needles for blood collection, eppendorf tubes for blood collection, eppendorf tubes for plasma storage, centrifuge, container for sample storage, container for plasma shipment w/dry ice. AC-0417-9 is a clear liquid, 100% active compound by weight. […] Levels of BHB continued to rise during the 3 hour time period with highest levels present at the 3 hour time point.

[2] = system: plasma beta-hydroxybutyrate (BHB); experiment: Mouse pharmacokinetic (PK) study: plasma BHB after oral (po) and intraperitoneal (ip) dosing of TOFA; type: in vivo; conditions: for Mean BHB levels: mouse plasma
Protocol: (§1) Purpose: Determine blood levels of ketone bodies after oral (po) and intraperitoneal (ip) dosing of TOFA at different time points in the mouse. Animals: 75 ICR male mice 6 to 7 weeks old were used. Each mouse weighed between 20-30 grams. General Study Design: Animals (housed 3/cage) were acclimated for at least 3 days prior to dosing. Mice were given either a single po dose (ranging from 0.5 mg/kg, to 5 mg/kg) of compound, or a single ip dose (1 mg/kg). Animals were anesthetized for blood collection at the times 0.5, 1, 2 and 3 hours. Whole blood (˜0.4 mls) was collected via cardiac puncture and collected into sodium heparin (Na Heparin, 1:9 ratio) anticoagulant. Blood was centrifuged for 8 minutes at 13,000 rpm to isolate plasma. The plasma was transferred into pre-labeled, color-coded eppendorf tubes and frozen at −70° C. […] Plasma levels of beta-hydroxybutyrate (BHB) were determined using a beta-hydroxybutyrate detection kit following manufacturer's directions (StanBio Inc.). Materials: Compound, mouse gavage needles, vehicle, Isoflurane, 51 1 cc syringes w/26 g needles for blood collection, 63 eppendorf tubes for blood collection, 63 eppendorf tubes for plasma storage, centrifuge, container for sample storage, container for plasma shipment w/dry ice. AC-8632 (5-(tetradecyloxy)-2-furan-carboxylic acid (TOFA)) is a white crystalline solid, 100% active compound by weight. It is insoluble in aqueous solutions. It is soluble in ethanol (1 mg/ml), DMSO (2 mg/ml) and DMF (10 mg/ml). For maximum solubility in aqueous buffers, AC-8632 should first be dissolved in DMF and then diluted with the aqueous buffer of choice. AC-8632 was solubilized at a concentration of 0.5 mg/ml in a 1:1 solution of DMF::PBS (pH 7.2). For ip treatment, AC-8632 was mixed with DMSO at 2 mg/ml. Results: AC-8632 (TOFA) elevated serum BHB levels at each dose from 0.5 mg-kg to 5 mg/kg. Levels of BHB continued to rise during the 3 hour time period with highest levels present at the 3 hour time point. […] Both po and ip dosing led to elevation of plasma BHB at the 3 hour time point.

Solubility of AC-8632 = type: physicochemical; conditions: for solubility: organic solvent or mixture
Protocol: as §1

MPTP lesioned mice = experiment: Neuroprotective effects of an ACC inhibitor in MPTP lesioned mice; type: in vivo; conditions: MPTP lesioned C57BL6 mice, oral gavage 0.001-5 mg/kg/day
Protocol: Neuroprotective effects of an ACC inhibitor in MPTP lesioned mice. 1-methyl-4-phenyl-1,2,3,6-tetrahydropyridine (MPTP), blocks complex I (NADH-ubiquinone oxidoreductase) of the mitochondrial electron transport chain, and causes typical symptoms of Parkinson's disease (PD) and the loss of dopaminergic neurons. C57BL6 mice receive daily orally gavage of CP-610431 at doses ranging from 0.001-5 mg/kg/day for seven days before they are lesioned with MPTP. During the 7 days of MPTP treatment animals will continue treatment with compound 1 or with a placebo. At the end of seven days animals are tested for behavioral effects of MPTP treatment and histopathology is performed.
Three groups of 10 animals are used for this experiment. Group 1 is treated with CP-610431 and lesioned with MPTP, Group 2 is treated with placebo and lesioned with MPTP, and Group 3 is treated with placebo and sham lesioned. After seven days of MPTP treatment behavior and motor skills are tested on all mice. Three tests are used to assess protective behavioral effects: Open Field behavior, Beam Walking test, and Rota Rod test. […]
Dopamine histopathology is immunohistochemically evaluated comparing tyrosine-hydroxylase-positive (TH+) neurons in the substantia nigra density of TH+ nerve terminals in the striatum on the lesioned side of drug treated and control animals. […]

[3] = system: Acetyl-CoA carboxylase (ACC), CT (carboxyltranferase) reaction; conditions: cited from earlier work

## CCCC(C)(C)CC(=O)OCC(O)CO (stereo not shown) [AC-0417-9, 3,3-Dimethylhexanoate, monoglyceride]
[1]
  serum BHB levels (effect in words): elevation; also recorded: elevate
[1]; 3 hour time period
  time point of highest BHB levels: 3 h

## CCCCCCCCCCCCCCOc1ccc(C(=O)O)o1 [AC-8632, 5-(tetradecyloxy)-2-furan-carboxylic acid]
[2]; 0.5 mg/kg po, 0 hr
  Mean BHB levels: 0.1353 mM
[2]; 0.5 mg/kg po, 0.5 hr
  Mean BHB levels: 0.2087 mM
[2]; 0.5 mg/kg po, 1 hr
  Mean BHB levels: 0.236 mM
[2]; 0.5 mg/kg po, 2 hr
  Mean BHB levels: 0.2427 mM
[2]; 0.5 mg/kg po, 3 hr
  Mean BHB levels: 0.3473 mM
[2]; 1 mg/kg ip, 0 hr
  Mean BHB levels: 0.1353 mM
[2]; 1 mg/kg ip, 0.5 hr
  Mean BHB levels: 0.1723 mM
[2]; 1 mg/kg ip, 1 hr
  Mean BHB levels: 0.177 mM
[2]; 1 mg/kg ip, 2 hr
  Mean BHB levels: 0.209 mM
[2]; 1 mg/kg ip, 3 hr
  Mean BHB levels: 0.2163 mM
[2]; 1 mg/kg po, 0 hr
  Mean BHB levels: 0.1353 mM
[2]; 1 mg/kg po, 0.5 hr
  Mean BHB levels: 0.2093 mM
[2]; 1 mg/kg po, 1 hr
  Mean BHB levels: 0.2187 mM
[2]; 1 mg/kg po, 2 hr
  Mean BHB levels: 0.2827 mM
[2]; 1 mg/kg po, 3 hr
  Mean BHB levels: 0.2973 mM
[2]; 2 mg/kg po, 0 hr
  Mean BHB levels: 0.1353 mM
[2]; 2 mg/kg po, 0.5 hr
  Mean BHB levels: 0.2153 mM
[2]; 2 mg/kg po, 1 hr
  Mean BHB levels: 0.1497 mM
[2]; 2 mg/kg po, 2 hr
  Mean BHB levels: 0.2127 mM
[2]; 2 mg/kg po, 3 hr
  Mean BHB levels: 0.339 mM
[2]; 5 mg/kg po, 0 hr
  Mean BHB levels: 0.1353 mM
[2]; 5 mg/kg po, 0.5 hr
  Mean BHB levels: 0.106 mM
[2]; 5 mg/kg po, 1 hr
  Mean BHB levels: 0.111 mM
[2]; 5 mg/kg po, 2 hr
  Mean BHB levels: 0.323 mM
[2]; 5 mg/kg po, 3 hr
  Mean BHB levels: 0.259 mM
[2]; mouse, 0.5-5 mg/kg po, 1 mg/kg ip
  difference of BHB levels by dose or by route of administration: did not differ significantly
[2]; mouse, 3 hour time period, po and ip
  time point of highest BHB levels: 3 h
[2]; mouse, each dose from 0.5 to 5 mg/kg
  serum BHB levels (effect in words): elevated
Solubility of AC-8632; DMF, read-out: solubility in DMF
  solubility: 10000 µg/mL (≈ 30.8 mM)
Solubility of AC-8632; DMSO, read-out: solubility in DMSO
  solubility: 2000 µg/mL (≈ 6.16 mM)
Solubility of AC-8632; aqueous solutions
  solubility in aqueous solutions: insoluble
Solubility of AC-8632; ethanol, read-out: solubility in ethanol
  solubility: 1000 µg/mL (≈ 3.08 mM)

## CCN(CC)C(=O)[C@@H]1CCCN(C2CCN(C(=O)c3c4ccccc4cc4ccccc34)CC2)C1 [CP-610431, R-1′-(anthracene-9-carbonyl)-N,N-diethyl-1,4′-bipiperidine-3-carboxamide]
MPTP lesioned mice
  behavior and motor skills (Open Field, Beam Walking, Rota Rod): Improved
MPTP lesioned mice; substantia nigra
  number of TH+ neurons: Increased

## O=C(c1c2ccccc2cc2ccccc12)N1CCC(N2CCC[C@@H](C(=O)N3CCOCC3)C2)CC1 [CP-640186, [(3R)-1-[1-(anthracene-9-carbonyl)piperidin-4-yl]piperidin-3-yl]-morpholin-4-ylmethanone]
[3]
  inhibition of the CT reaction of ACC (in words): potent, reversible, isozyme-nonselective inhibitors
